Assay in all cases: DTP human tumour cell line panel, 48 h
Experiment [1] has as its system SF-295 CNS.
The test system of experiment [2] is HCT-15 colon.
For experiment [3], the system named is NCI/ADR-RES ovarian.
Experiment [4] relates to UO-31 renal.
Experiment [5] has as its system SK-MEL-2 melanoma.
The test system of experiment [6] is ACHN renal.
Experiment [7] has as its system BT-549 breast.
Experiment [8] deals with SF-268 CNS.
Experiment [9] deals with RXF 393 renal.
Experiment [10] concerns EKVX NSCLC.

The TGI is the concentration at which net growth stops. A lower TGI goes with more potent growth arrest. One may read the GI50 as the concentration giving 50% growth inhibition.

Several values for one entry are separate records, joined by “and”; a condition that tells them apart may be missing. Equal entries are not always repeated.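 These data come from cells grown in 96-well plates and exposed to compound for 48 hours at five concentrations. Here, GI50 denotes the concentration required for 50% inhibition of growth. Definition used: TGI = concentration required for complete inhibition of growth.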 Some results are limits rather than exact numbers.

For `CN1C(=O)[C@@]2(C=CC3(CC2)OCCO3)c2ccccc21`, the total growth inhibition concentration (TGI) in [1], in experiment [2], in [3], in experiment [4], in experiment [5] and in experiment [6] was over 50 µM in each case. The TGI in experiment [7] is over 50 µM; in experiment [8] it was 32.2 µM; in experiment [9] it was over 50 µM; in experiment [10], over 50 µM.
As for `OCc1ccccc1OC1OC(CO)C(O)C(O)C1O` (centres undefined), the TGI in [1], in [2], in experiment [3], in [4], in experiment [5] and in experiment [6] was over 100 µM each time. In addition, the concentration for total growth inhibition (TGI) in [7], in experiment [8], in experiment [9] and in experiment [10] was over 100 µM each time.
As to `Cc1nn(C(=O)c2ccccc2O)c2c1C(c1ccc(O)cc1)SC(N)=N2` (centres undefined), the TGI in experiment [1], in [2], in experiment [3], in [4], in [5] and in [6] was over 10 µM throughout. Moreover, the TGI in [7], in experiment [8], in experiment [9] and in experiment [10] was over 10 µM in each case.
As for `CNC(=O)OCC1=C(COC(=O)NC)CN(c2ccccc2)C1`, the TGI in [1], in [2], in experiment [3], in [4], in experiment [5] and in experiment [6] was over 100 µM each time. Moreover, the TGI in [7], in experiment [8], in experiment [9] and in experiment [10] was over 100 µM each time.
With `O=C(O)c1ccccc1-c1ccccc1C(=O)c1ccccc1`, the total growth inhibition concentration (TGI) in experiment [1], in experiment [2], in experiment [3], in experiment [4], in experiment [5] and in [6] was over 100 µM in each case. In addition, the TGI in experiment [7], in [8], in experiment [9] and in experiment [10] was over 100 µM each time.
Take `CCC1(O)CN(CCOC)[C@H]2C[C@@H]1C(=O)c1[nH]c3ccccc3c12` (some centres undefined): the TGI in [1], in experiment [2], in experiment [3], in experiment [4], in experiment [5] and in experiment [6] was over 100 µM in each case. For the same compound, the TGI in [7], in experiment [8], in experiment [9] and in [10] was over 100 µM each time.
For the compound `CN1C/C(=C\c2ccccc2[N+](=O)[O-])C(=O)/C(=C/c2ccccc2[N+](=O)[O-])C1`, the GI50 was 5.62 µM and 2.46 µM in experiment [1]; 0.532 µM and 0.228 µM in experiment [6]; 0.149 µM and 0.626 µM in experiment [7]; 1.78 µM and 0.737 µM in experiment [8]; 0.477 µM and 0.191 µM in experiment [9]; 2.94 µM and 0.554 µM in [10]. Further, the concentration for total growth inhibition (TGI) in experiment [1] was 13.7 µM and 7 µM; in experiment [2], 0.527 µM and 0.696 µM; in [3], > 28.1 µM and 29.4 µM; in [4] it was 1.28 µM and 1.12 µM; in [5], 8.87 µM and 4.36 µM; in [6], 1.46 µM and 0.628 µM. The TGI in experiment [7] was 0.448 µM and 2.09 µM; in experiment [8], 7.23 µM and 2.86 µM; in [9], 1.13 µM and 0.485 µM; in experiment [10], 13.1 µM and 11 µM.
As for `COc1cc(C2S/C(=C/c3ccccc3)C(=O)N2c2ccc(Cl)cc2)cc(OC)c1OC` (centres undefined), the total growth inhibition concentration (TGI) in experiment [1] was over 100 µM; in experiment [2] it was over 100 µM; in [3], over 100 µM; in experiment [4], over 100 µM; in [5] it was over 30.2 µM; in experiment [6], over 100 µM. Also, the TGI in experiment [7], in experiment [8], in [9] and in experiment [10] was over 100 µM throughout.
`CCOP(=O)(OCC)C(F)(F)CC1CCCCC1`: the concentration for total growth inhibition (TGI) in [1], in [2], in experiment [3], in experiment [4], in [5] and in experiment [6] was over 10 µM each time. For the same compound, the TGI in experiment [7], in [8], in experiment [9] and in [10] was over 10 µM each time.
`CSC1(SC)CCCCCCCCCCC1`: the concentration for total growth inhibition (TGI) in experiment [1] is 97.1 µM; in [2], over 100 µM; in experiment [3] it was over 100 µM; in [4] it was over 100 µM; in experiment [5], over 100 µM; in [6] it was over 100 µM. For the same compound, the TGI in experiment [7], in [8], in [9] and in experiment [10] was over 100 µM each time.
As to `c1csc(-c2ccc(-c3ccc(-c4cccs4)s3)s2)c1`, the concentration for total growth inhibition (TGI) in experiment [1], in [2], in experiment [3], in experiment [4], in [5] and in experiment [6] was over 100 µM throughout. Besides, the concentration for total growth inhibition (TGI) in experiment [7], in experiment [8], in [9] and in experiment [10] was over 100 µM each time.
Take `C=C1c2nc3ccccc3n2C=C(c2ccccc2)N1c1ccc(OC)cc1`: the TGI in experiment [1] is 25.3 µM; in experiment [2], 20.3 µM; in experiment [3], 71.4 µM; in experiment [4], 26.6 µM; in experiment [5] it was over 100 µM; in experiment [6] it was 28.7 µM. The TGI in experiment [7] was 38.3 µM; in experiment [9], 83.5 µM; in [10], over 100 µM.
For the compound `COc1ccccc1OC/C(N=Cc1ccncc1)=N/NC(=O)c1ccncc1`, the TGI in experiment [1], in experiment [2], in experiment [3], in experiment [5], in [6] and in experiment [7] was over 100 µM each time. Also, the total growth inhibition concentration (TGI) in experiment [8], in [9] and in [10] was over 100 µM in each case.

Values taken from PubChem BioAssay (NCI).
